The text below walks through data of article PMC10817174, “Integrated drug response prediction models pinpoint repurposed drugs with effectiveness against rhabdomyosarcoma” (PLOS ONE, 2024).

Entries after “also recorded” stand apart in the source; their conditions may differ. Where two headings read alike, the source gives them in different places.

Data set [1] relates to SJCRH30 (human alveolar rhabdomyosarcoma) cells. The data set is described as follows: MTT cell viability assay in SJCRH30 cells. The format is cell-based. The conditions noted are these: 24 h; for anti-proliferation / anti-cancer activity in SJCRH30 cells: in words; for IC50: SJ-S drugs, SJCRH30 cells, read-out: IC50(μM) RMS. The source says: (§1) The RD (human embryonal rhabdomyosarcoma) and CCD-18Co (human colon fibroblast) cell lines were purchased from the Korean Cell Line Bank (KCLB). SJCRH30 (human alveolar rhabdomyosarcoma) cell line was purchased from the American Type Culture Collection (ATCC). RD and CCD-18Co cells were maintained in Dulbecco’s Modified Eagle’s Medium (DMEM; Gibco) supplemented with 10% fetal bovine serum (FBS; Gibco) and 1% penicillin/streptomycin (P/S; Gibco). SJCRH30 cells were maintained in Roswell Park Memorial Institute medium (RPMI 1640, Gibco) supplemented with 10% FBS and 1% P/S. Cells were grown in a humidified chamber containing 5% CO2 at 37°C. Cell line authentication was performed by short tandem repeat profile using PowerPlex® 18D system (Promega Corporation) and sequencing apparatus Applied Biosystems 3130xl Genetic Analyzer (Applied Biosystem) according to manufacturer’s protocol.
(§2) SJCRH30, RD, and CCD-18Co cells were seeded at 2 × 10^4 cells/well in 96-well plates. The candidate drugs were treated for 24 h. AZ628, BIX02189, fedratinib, nutlin-3a, VX-11e, SB590885, NSC207895, tubastatin A, CX-5461, navitoclax, GSK1070916 and the FDA-approved drug library were purchased from Selleckchem. GW.44175 was purchased from Cayman chemical. MTT (3-(4,5-Dimethylthiazol-2-yl)-2,5-Diphenyltetrazolium bromide, Sigma) cell viability detection reagent diluted in serum free medium was added to each well and incubated for 2 h at 37°C. The supernatant was removed, and 50 μL DMSO was added to dissolve the precipitate. Absorbance was measured at 570 nm using a Molecular Devices VersaMax microplate reader and SoftMax® Pro 5 software. IC50 was calculated with GraphPad Prism 7 software.
(In general: Tetrazolium dyes change colour on reduction, which living cells bring about.)

Data set [2] has as its system CCD-18Co (human colon fibroblast) cells. The data set is described as follows: MTT cell viability assay in normal control cells. The conditions noted are these: for IC50 / IC50(μM) CCD-18Co: normal cell control, 24 h; for selective anti-cancer activity against the RMS cell lines: based on the CCD-18Co control results. The format is cell-based.
Source text: as §1, §2

A further data set relates to GDSC-RD cell line. The note with it: cited from earlier work; for Iorio_RD: Table S2, published drug response ref Iorio et al. (2016).
Another data set has as its system GDSC-SJCRH30 cell line. The note with it: cited from earlier work; for Iorio_SJCRH30: Table S2, published drug response ref Iorio et al. (2016).
The next data set has as its system SJCRH30 cells. In words: Caspase-3/7 activity assay in SJCRH30 cells. The format is cell-based, human. The conditions noted are these: 24 h. The procedure:
(§3) The activity of caspase-3/7 was detected with the CellEvent^TM Caspase-3/7 Green detection kit (Thermo Fisher Scientific, C10423), following the manufacturer’s instructions. SJCRH30 and RD cells were seeded at 2 × 10^4 cells/well in 96-well plates. […] Stained cells were observed under fluorescent microscopy (LEICA, DMI3000 B). Drugs were treated in triplicates and 4 pictures of each well were captured. The percentage of caspase-3/7 positive cells per field of view was quantified using ImageJ software.

Data set [3] relates to RD (human embryonal rhabdomyosarcoma) cells. In words: MTT cell viability assay in RD cells. The note with it: 24 h; for anti-proliferation / anti-cancer activity in RD cells: in words; for IC50: RD-S drugs, RD cells, read-out: IC50(μM) RMS. Type of data set: cell-based.
Source text: as §1, §2

Another data set relates to RD cells. The data set is described as follows: Caspase-3/7 activity assay in RD cells. Type of data set: cell-based, human. The note with it: 24 h. The procedure: as §3
A further data set deals with Ewing’s sarcoma. On the set-up: method as in PMID 26095524. The conditions noted are these: Ewing’s sarcoma ref 42; cited from earlier work.
The conditions of data set [4]: heavily pre-treated soft-tissue sarcoma patients ref 43; cited from earlier work.
Another data set deals with uterine sarcoma. The conditions noted are these: in vitro and in vivo ref 44; cited from earlier work.
The mark [5] stands for this setting: Homo sapiens, Rhabdomyosarcoma cell.

The IC50 is the midpoint of a concentration-inhibition curve. In the case of `CCc1cc2c(cc1N1CCC(N3CCOCC3)CC1)C(C)(C)c1[nH]c3cc(C#N)ccc3c1C2=O` [Alectinib], the “anti-proliferation / anti-cancer activity in SJCRH30 cells” value in data set [1] is reported as “higher anti-cancer activity”. Besides, the IC50 in data set [1] (setting [5]) came to 3.21 µM; in data set [2] (Homo sapiens, CCD-18Co, MTT), 5.96 µM. Moreover, the Iorio_RD result with GDSC-RD cell line is recorded as “R”. Moreover, the Iorio_SJCRH30 entry with GDSC-SJCRH30 cell line is “S”.
For `O=C(/C=C/c1cccc(S(=O)(=O)Nc2ccccc2)c1)NO` [Belinostat], in [1], the “anti-proliferation / anti-cancer activity in SJCRH30 cells” value is recorded as “higher anti-cancer activity; also recorded: reduced cells proliferation to a greater degree than the clinical drugs; also recorded: sensitive” and the half-inhibitory concentration (IC50) is 0.146 µM. Besides, the IC50 in [1] (setting [5]) was 0.146 µM. In addition, in [2], the “selective anti-cancer activity against the RMS cell lines” value is “selective anti-cancer activity”. Further, the “IC50(μM) CCD-18Co” value in data set [2] (MTT) is “No cytotoxicity”. For the same molecule, in the data set on SJCRH30 cells, the caspase-3/7 activation result was “increased level of caspase-3/7 activation”. For the same molecule, in the data set with GDSC-RD cell line, the Iorio_RD result is recorded as “R”. Moreover, in the data set on GDSC-SJCRH30 cell line, the Iorio_SJCRH30 result was “R” and the “GDSC-SJCRH30 drug response” value is “resistant”.
As for `CCn1cc(-c2ccnc3[nH]c(-c4cccc(CN(C)C)c4)cc23)c(-c2ccc(NC(=O)N(C)C)cc2)n1` [GSK1070916], the “anti-proliferation / anti-cancer activity in SJCRH30 cells” value in [1] is on record as “higher anti-cancer activity”. The IC50 in [1] (setting [5]) came out at 1.4 µM. Further, the “IC50(μM) CCD-18Co” value in data set [2] (MTT) is “No cytotoxicity”. The Iorio_RD entry in the data set with GDSC-RD cell line is listed as “R”. In the data set with GDSC-SJCRH30 cell line, the Iorio_SJCRH30 result is reported as “R”.
As for `CN1CCN(c2ccc([N+](=O)[O-])c3no[n+]([O-])c23)CC1` [NSC207895], in data set [3], the “anti-proliferation / anti-cancer activity in RD cells” value is “higher anti-cancer activity; also recorded: effectively inhibited cell proliferation compared to vincristine and cyclophosphamide”; the 50% inhibitory concentration (IC50) came to 6.57 µM. Moreover, the “selective anti-cancer activity against the RMS cell lines” value in [2] was “selective anti-cancer activity”. For the same molecule, the “IC50(μM) CCD-18Co” value in data set [2] (MTT) is “No cytotoxicity”. In addition, the caspase-3/7 activation result with RD cells is reported as “significantly induced the activation of caspase-3/7”. The Iorio_RD entry in the data set on GDSC-RD cell line is on record as “S”. For the same molecule, the Iorio_SJCRH30 result in the data set with GDSC-SJCRH30 cell line was “R”. The apoptosis induction result in the data set on Ewing’s sarcoma was “induces p53-independent apoptosis”.
Consider `CC1(C)CCC(c2ccc(Cl)cc2)=C(CN2CCN(c3ccc(C(=O)NS(=O)(=O)c4ccc(N[C@H](CCN5CCOCC5)CSc5ccccc5)c(S(=O)(=O)C(F)(F)F)c4)cc3)CC2)C1` [Navitoclax], for which, in data set [1], the “anti-proliferation / anti-cancer activity in SJCRH30 cells” value is on record as “higher anti-cancer activity”. Besides, the IC50 in [1] (setting [5]) stood at 0.764 µM; in data set [2] (Homo sapiens, CCD-18Co, MTT) it was 0.319 µM. The Iorio_SJCRH30 entry with GDSC-SJCRH30 cell line was “R”.
For `CN(C)CCOc1ccc(-c2nc(-c3ccncc3)c(-c3ccc4c(c3)CC/C4=N\O)[nH]2)cc1` [SB590885], the “anti-proliferation / anti-cancer activity in RD cells” value in data set [3] is on record as “higher anti-cancer activity”. Further, the IC50 in data set [3] (Homo sapiens) came out at 2.52 µM; in data set [2] (Homo sapiens, CCD-18Co, MTT), 4.88 µM. Also, in the data set on GDSC-SJCRH30 cell line, the Iorio_SJCRH30 result is recorded as “R”.
On to `Cc1cnc(Nc2ccc(F)cc2Cl)nc1-c1c[nH]c(C(=O)N[C@H](CO)c2cccc(Cl)c2)c1` [VX-11e], for which, in [3], the “anti-proliferation / anti-cancer activity in RD cells” value is reported as “higher anti-cancer activity” and the concentration for half-maximal inhibition (IC50) was found to be 3.79 µM. Further, the IC50 in data set [2] (MTT) came out at 4.04 µM. For the same molecule, the Iorio_RD result with GDSC-RD cell line was “S”. Further, in the data set on GDSC-SJCRH30 cell line, the Iorio_SJCRH30 result was “R”.
Turning to `O=C(CCCCCCC(=O)Nc1ccccc1)NO` [Vorinostat], in data set [1], the “anti-proliferation / anti-cancer activity in SJCRH30 cells” value is “higher anti-cancer activity; also recorded: reduced cells proliferation to a greater degree than the clinical drugs”. Besides, the caspase-3/7 activation entry with SJCRH30 cells was “increased level of caspase-3/7 activation”. Further, the Iorio_SJCRH30 result in the data set on GDSC-SJCRH30 cell line is reported as “S”. The “patients with long-term disease stabilization” value in data set [4] is 6 of the 40. Also, the uterine sarcoma growth result with uterine sarcoma is reported as “inhibited the uterine sarcoma growth”.
As to `COc1nc(C)cnc1NS(=O)(=O)c1cccnc1-c1ccc(-c2nnco2)cc1` [Zibotentan], the Iorio_RD entry in the data set with GDSC-RD cell line was “R”. Besides, in the data set with GDSC-SJCRH30 cell line, the Iorio_SJCRH30 result was “R”.
Consider `Cc1cnc(Nc2ccc(OCCN3CCCC3)cc2)nc1Nc1cccc(S(=O)(=O)NC(C)(C)C)c1` [fedratinib], for which the “anti-proliferation / anti-cancer activity in RD cells” value in [3] was “high non-selective anti-proliferation activity; also recorded: high in vitro sensitivity”. Moreover, the “anti-proliferation / anti-cancer activity in SJCRH30 cells” value in data set [1] is reported as “high non-selective anti-proliferation activity; also recorded: high in vitro sensitivity”. Also, in [2] (MTT, in words), the “toxicity toward the CCD-18Co control line” value is “toxicity toward the control line; also recorded: highly sensitive”. In the data set with GDSC-RD cell line, the Iorio_RD entry is listed as “R” and the “GDSC-RD drug response” value was “resistance”. The Iorio_SJCRH30 result with GDSC-SJCRH30 cell line is on record as “R”.
Consider `COc1cc(/C=C/C(=O)N2CCC=CC2=O)cc(OC)c1OC` [piperlongumine], for which the Iorio_RD result in the data set with GDSC-RD cell line is reported as “S”. Besides, the Iorio_SJCRH30 result with GDSC-SJCRH30 cell line is given as “R”.
In the case of CCT007093, the Iorio_RD entry with GDSC-RD cell line is recorded as “R”. In addition, in the data set on GDSC-SJCRH30 cell line, the Iorio_SJCRH30 entry is listed as “R”.
For I-BET-151, in the data set with GDSC-RD cell line, the Iorio_RD result is “R”. The Iorio_SJCRH30 entry in the data set with GDSC-SJCRH30 cell line is listed as “R”.

B1: rTRAIL: GDSC anti-cancer compound (protein, UniProt P50591 1-281, looked up)
Tumor necrosis factor ligand …: MAMMEVQGGPSLGQTCVLIVIFTVLLQSLCVAVTYVYFTNELKQMQDKYSKSGIACFLKEDDSYWDPNDEESMNSPCWQVKWQLRQLVRKMILRTSEETISTVQEKQQNISPLVRERGPQRVAAHITGTRGRSNTLSSPNSKNEKALGRKINSWESSRSGHSFLSNLHLRNGELVIHEKGFYYIYSQTYFRFQEEIKENTKNDKQMVQYIYKYTSYPDPILLMKSARNSCWSKDAEYGLYSIYQGGIFELKENDRIFVSVTNEHLIDMDHEASFFGAFLVG
As for B1, in the data set on GDSC-RD cell line, the Iorio_RD result is given as “S”. Also, in the data set with GDSC-SJCRH30 cell line, the Iorio_SJCRH30 result is given as “R”.
